According to ChEMBL document CHEMBL3120096 (J Med Chem, 2014):
Converted amounts (≈) assume the structure as drawn.

Legend:
[1] = system: Rattus norvegicus; assay: Unbound clearance in Sprague-Dawley rat at 1 mg/kg, po and 0.5 mg/kg, iv; type: ADME, organism-based; settings: in vivo
[2] = system: Mus musculus; assay: In vivo inhibition of human LRRK2 G2019S Parkinson's disease mutant expressed in BAC mouse assessed as inhibition of autophosphorylation at Ser1292 in brain at 10 to 50 mg/kg, ip after 1 to 6 hrs; type: functional, organism-based; design: dose 10-50 mg/kg, route intraperitoneal
[3] = Clearance in rat hepatocytes at 1 uM by LC-MS/MS analysis; type: ADME, cell-based, Hepatocyte
[4] = Oral bioavailability in cynomolgus monkey at 1 mg/kg; type: ADME, organism-based, Macaca fascicularis; settings: in vivo
[5] = biological target: T1, Leucine-rich repeat serine/threonine-protein kinase 2 (Homo sapiens, UniProt Q5S007); assay: Inhibition of LRRK2 (unknown origin) phosphorylation by cell-based assay
T1 sequence (Q5S007 whole entry): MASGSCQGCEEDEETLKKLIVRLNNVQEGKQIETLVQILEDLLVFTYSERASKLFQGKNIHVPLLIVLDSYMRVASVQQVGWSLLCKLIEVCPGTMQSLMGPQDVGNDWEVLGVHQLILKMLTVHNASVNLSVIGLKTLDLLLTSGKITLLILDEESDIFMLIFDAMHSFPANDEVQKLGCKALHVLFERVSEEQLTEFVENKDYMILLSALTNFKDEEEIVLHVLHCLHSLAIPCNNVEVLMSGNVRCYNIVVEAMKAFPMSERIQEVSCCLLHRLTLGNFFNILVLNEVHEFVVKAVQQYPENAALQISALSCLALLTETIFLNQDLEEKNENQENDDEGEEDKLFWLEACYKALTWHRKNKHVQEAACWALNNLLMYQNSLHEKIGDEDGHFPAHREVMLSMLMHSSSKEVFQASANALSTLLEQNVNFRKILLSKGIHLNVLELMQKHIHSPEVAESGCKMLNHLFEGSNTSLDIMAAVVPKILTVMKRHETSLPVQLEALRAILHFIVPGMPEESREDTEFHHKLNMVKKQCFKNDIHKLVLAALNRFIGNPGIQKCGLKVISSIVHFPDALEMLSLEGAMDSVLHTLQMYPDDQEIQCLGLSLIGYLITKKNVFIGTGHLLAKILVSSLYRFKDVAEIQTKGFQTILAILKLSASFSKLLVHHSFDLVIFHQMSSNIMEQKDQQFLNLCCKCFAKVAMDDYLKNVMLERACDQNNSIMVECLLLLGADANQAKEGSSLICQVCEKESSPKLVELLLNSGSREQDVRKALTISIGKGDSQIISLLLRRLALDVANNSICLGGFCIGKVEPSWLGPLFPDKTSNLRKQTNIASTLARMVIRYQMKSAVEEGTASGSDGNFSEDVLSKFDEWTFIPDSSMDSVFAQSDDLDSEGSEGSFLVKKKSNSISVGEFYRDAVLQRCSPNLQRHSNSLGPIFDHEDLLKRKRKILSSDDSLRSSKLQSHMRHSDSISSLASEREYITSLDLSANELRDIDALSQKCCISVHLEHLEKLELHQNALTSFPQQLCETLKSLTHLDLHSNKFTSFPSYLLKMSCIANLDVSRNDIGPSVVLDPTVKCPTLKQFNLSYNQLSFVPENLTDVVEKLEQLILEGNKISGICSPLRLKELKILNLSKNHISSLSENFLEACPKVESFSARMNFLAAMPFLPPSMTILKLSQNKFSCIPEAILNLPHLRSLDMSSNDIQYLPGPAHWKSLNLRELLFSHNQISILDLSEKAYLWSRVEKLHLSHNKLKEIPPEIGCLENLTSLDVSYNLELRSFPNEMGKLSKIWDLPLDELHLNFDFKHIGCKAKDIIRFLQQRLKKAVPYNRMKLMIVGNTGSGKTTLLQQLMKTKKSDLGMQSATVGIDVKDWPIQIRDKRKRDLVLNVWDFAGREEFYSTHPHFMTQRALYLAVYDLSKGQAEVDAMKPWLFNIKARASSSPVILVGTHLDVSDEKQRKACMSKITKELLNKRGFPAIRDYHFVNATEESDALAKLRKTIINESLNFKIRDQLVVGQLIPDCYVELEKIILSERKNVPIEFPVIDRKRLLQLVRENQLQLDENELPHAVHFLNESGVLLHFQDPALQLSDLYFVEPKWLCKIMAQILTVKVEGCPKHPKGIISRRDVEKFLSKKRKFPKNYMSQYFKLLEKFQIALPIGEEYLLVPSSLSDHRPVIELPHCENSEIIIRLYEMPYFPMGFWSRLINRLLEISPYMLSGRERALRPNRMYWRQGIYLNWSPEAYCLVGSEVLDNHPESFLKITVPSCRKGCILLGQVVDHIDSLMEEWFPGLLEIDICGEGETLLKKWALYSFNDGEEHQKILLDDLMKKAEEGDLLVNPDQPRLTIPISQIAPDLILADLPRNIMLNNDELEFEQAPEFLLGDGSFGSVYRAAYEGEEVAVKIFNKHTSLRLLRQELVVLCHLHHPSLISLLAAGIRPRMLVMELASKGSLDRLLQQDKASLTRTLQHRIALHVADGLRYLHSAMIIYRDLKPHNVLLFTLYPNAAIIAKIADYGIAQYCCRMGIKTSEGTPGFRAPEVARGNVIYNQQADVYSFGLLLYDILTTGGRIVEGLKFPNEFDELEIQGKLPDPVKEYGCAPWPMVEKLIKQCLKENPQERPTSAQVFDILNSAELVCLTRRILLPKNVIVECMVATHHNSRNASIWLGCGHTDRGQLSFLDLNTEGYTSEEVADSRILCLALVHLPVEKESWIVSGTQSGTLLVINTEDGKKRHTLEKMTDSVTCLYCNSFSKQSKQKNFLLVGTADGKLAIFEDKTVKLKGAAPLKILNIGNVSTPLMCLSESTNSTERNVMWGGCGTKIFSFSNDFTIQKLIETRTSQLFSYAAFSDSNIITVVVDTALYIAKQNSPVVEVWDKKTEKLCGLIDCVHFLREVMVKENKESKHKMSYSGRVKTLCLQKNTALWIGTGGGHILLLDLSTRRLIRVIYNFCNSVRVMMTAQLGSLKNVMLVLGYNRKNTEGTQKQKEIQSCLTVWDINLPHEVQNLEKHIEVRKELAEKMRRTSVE

[6] = biological target: T1, Leucine-rich repeat serine/threonine-protein kinase 2; assay: Inhibition of LRRK2 (unknown origin)
[7] = Clearance in Sprague-Dawley rat at 1 mg/kg, po and 0.5 mg/kg, iv; type: ADME, organism-based; settings: in vivo
[8] = biological target: Ribosomal protein S6 kinase alpha-6 (Homo sapiens) (UniProt Q9UK32); assay: Inhibition of RSK4 (unknown origin) at 0.1 uM relative to control
Sequence of Ribosomal protein S6 kinase alpha-6 (Homo sapiens) (Q9UK32 whole entry): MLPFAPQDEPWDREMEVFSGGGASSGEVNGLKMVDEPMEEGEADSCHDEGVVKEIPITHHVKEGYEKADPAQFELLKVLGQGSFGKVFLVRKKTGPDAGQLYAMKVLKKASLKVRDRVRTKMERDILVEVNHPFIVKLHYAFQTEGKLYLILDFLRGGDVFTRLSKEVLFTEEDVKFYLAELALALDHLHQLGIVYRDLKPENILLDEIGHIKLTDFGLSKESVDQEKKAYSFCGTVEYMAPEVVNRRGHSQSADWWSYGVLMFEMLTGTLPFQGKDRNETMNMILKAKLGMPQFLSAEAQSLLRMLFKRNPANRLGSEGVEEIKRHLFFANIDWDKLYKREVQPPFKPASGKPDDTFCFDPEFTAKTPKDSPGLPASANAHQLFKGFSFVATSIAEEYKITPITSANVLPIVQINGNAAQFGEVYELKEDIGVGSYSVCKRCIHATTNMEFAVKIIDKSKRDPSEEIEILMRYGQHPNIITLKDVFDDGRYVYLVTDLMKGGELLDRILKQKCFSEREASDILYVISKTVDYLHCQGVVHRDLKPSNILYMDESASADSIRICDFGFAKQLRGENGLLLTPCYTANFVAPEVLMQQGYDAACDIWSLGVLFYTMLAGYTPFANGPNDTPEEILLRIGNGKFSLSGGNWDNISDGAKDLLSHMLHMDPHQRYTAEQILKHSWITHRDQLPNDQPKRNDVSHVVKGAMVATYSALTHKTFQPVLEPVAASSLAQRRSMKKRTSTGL

[9] = Clearance in human hepatocytes at 1 uM by LC-MS/MS analysis; type: ADME, cell-based, Hepatocyte
[10] = biological target: T2, Dual specificity protein kinase TTK (Homo sapiens, UniProt P33981); assay: Inhibition of TTK (unknown origin)
T2 sequence (P33981 whole entry): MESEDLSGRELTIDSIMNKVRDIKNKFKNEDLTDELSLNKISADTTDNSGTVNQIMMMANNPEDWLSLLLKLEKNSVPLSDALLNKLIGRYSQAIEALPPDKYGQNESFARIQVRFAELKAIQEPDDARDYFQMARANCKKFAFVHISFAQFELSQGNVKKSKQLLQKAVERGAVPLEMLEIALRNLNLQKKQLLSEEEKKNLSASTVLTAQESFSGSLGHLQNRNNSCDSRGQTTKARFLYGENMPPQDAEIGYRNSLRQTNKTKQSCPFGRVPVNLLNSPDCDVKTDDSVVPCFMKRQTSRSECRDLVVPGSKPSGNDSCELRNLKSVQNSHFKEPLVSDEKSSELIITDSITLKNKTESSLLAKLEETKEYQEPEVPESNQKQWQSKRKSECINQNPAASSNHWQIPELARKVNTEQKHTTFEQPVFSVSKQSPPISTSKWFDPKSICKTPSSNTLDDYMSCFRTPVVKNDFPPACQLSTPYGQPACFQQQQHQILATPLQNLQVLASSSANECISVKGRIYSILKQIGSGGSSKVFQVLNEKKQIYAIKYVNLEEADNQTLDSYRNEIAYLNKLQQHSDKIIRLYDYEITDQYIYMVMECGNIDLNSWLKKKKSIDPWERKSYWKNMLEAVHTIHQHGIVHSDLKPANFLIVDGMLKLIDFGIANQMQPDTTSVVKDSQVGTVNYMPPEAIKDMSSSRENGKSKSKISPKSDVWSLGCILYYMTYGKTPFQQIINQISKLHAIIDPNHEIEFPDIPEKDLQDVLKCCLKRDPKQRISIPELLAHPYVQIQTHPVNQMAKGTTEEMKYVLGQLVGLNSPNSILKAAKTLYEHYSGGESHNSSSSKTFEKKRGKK

[11] = Oral bioavailability in Sprague-Dawley rat at 50 mg/kg; type: ADME, organism-based; settings: in vivo
[12] = biological target: T3, Cytochrome P450 2B6 (Homo sapiens, UniProt P20813); assay: Induction of CYP2B6 in human hepatocytes; type: ADME, cell-based, Hepatocyte
T3 sequence (P20813 whole entry): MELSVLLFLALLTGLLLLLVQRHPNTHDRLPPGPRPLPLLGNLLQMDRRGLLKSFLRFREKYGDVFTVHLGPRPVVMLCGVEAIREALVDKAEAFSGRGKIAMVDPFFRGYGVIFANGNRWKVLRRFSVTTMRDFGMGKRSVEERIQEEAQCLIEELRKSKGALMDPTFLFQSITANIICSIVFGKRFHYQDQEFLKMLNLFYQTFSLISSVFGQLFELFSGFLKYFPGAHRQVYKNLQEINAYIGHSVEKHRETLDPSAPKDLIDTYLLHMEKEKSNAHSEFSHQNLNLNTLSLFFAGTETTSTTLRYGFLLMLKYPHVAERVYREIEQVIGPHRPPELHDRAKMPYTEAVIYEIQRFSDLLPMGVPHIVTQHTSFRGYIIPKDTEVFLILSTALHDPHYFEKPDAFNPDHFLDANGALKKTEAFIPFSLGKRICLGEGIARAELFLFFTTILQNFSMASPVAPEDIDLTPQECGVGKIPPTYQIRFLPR

[13] = Clearance in cynomolgus monkey at 1 mg/kg, po and 0.5 mg/kg, iv; type: ADME, organism-based, Macaca fascicularis; settings: in vivo
[14] = biological target: Cytochrome P450 3A4 (Homo sapiens, UniProt P08684); assay: Induction of CYP3A4 in human hepatocytes; type: ADME, cell-based, Hepatocyte
Sequence of Cytochrome P450 3A4 (P08684 whole entry): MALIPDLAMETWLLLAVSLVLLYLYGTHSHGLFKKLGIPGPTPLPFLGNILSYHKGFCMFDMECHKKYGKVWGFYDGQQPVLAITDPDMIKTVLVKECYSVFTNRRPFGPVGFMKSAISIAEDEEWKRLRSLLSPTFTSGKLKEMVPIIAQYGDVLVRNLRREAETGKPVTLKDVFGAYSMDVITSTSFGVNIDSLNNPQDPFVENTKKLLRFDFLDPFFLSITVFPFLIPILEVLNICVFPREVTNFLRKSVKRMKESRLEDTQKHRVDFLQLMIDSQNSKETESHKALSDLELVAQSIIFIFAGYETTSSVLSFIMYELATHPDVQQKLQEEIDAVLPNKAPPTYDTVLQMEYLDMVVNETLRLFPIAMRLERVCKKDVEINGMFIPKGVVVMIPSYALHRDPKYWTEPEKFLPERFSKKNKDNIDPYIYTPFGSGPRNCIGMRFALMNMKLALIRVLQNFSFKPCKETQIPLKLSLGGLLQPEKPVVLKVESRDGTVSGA

[15] = biological target: T4, Cytochrome P450 1A2 (Homo sapiens, UniProt P05177); assay: Induction of CYP1A2 in human hepatocytes; type: ADME, cell-based, Hepatocyte
T4 sequence (P05177 whole entry): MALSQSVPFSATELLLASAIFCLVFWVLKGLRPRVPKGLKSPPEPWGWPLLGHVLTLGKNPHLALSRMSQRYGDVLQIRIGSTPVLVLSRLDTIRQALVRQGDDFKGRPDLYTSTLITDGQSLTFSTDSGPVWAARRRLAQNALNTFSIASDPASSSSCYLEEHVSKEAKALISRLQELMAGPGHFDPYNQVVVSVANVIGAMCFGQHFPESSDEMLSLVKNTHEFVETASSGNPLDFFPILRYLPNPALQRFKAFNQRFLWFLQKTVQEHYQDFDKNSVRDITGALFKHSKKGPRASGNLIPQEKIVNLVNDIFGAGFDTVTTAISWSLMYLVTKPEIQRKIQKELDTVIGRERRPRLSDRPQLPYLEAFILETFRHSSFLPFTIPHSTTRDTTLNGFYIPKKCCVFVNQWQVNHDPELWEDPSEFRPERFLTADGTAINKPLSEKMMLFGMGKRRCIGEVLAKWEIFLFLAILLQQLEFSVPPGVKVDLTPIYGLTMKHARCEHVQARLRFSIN

[16] = biological target: T4, Cytochrome P450 1A2; assay: Reversible inhibition of CYP1A2 in human liver microsomes using phenacetin as substrate by mass spectrophotometric analysis; type: ADME
[17] = Half life in cynomolgus monkey at 0.5 mg/kg, iv; type: ADME, organism-based, Macaca fascicularis; design: dose 0.5 mg/kg, route intravenous; settings: in vivo
[18] = system: Liver microsome; assay: Drug metabolism in human liver microsomes assessed as glucuronidated parent compound level after 3 hrs; type: ADME
[19] = Thermodynamic solubility of the crystalline form of compound at pH 7.4; type: physicochemical; settings: read-out: Therm_solubility
[20] = biological target: Ribosomal protein S6 kinase alpha-3 (Homo sapiens) (UniProt P51812); assay: Inhibition of RSK2 (unknown origin) at 0.1 uM relative to control
[21] = biological target: Ribosomal protein S6 kinase alpha-2 (Homo sapiens) (UniProt Q15349); assay: Inhibition of RSK3 (unknown origin) at 0.1 uM relative to control
[22] = system: Hepatocyte; assay: Drug metabolism in human hepatocytes assessed as glucuronidated parent compound level after 3 hrs; type: ADME, cell-based
[23] = system: Cynomolgus monkey; assay: Unbound clearance in cynomolgus monkey at 1 mg/kg, po and 0.5 mg/kg, iv; type: ADME, organism-based, Macaca fascicularis; settings: in vivo
[24] = Ratio of unbound drug level in brain to plasma in Sprague-Dawley rat; type: ADME, organism-based
[25] = Plasma protein binding in cynomolgus monkey at 5 uM after 4 hrs by equilibrium dialysis technique; type: ADME, cell-free, Macaca fascicularis; settings: read-out: PPB (converted)
[26] = biological target: Aurora kinase B (Homo sapiens) (UniProt Q96GD4); assay: Inhibition of aurora-B (unknown origin) at 0.1 uM relative to control
[27] = biological target: MDR1 (P-gp, ABCB1) (Homo sapiens, UniProt P08183); assay: Activity at human MDR1 transfected in MDCK cells assessed as efflux ratio of apparent permeability from basolateral to apical side over apical to basolateral side at 5 uM; type: ADME, cell-based
Sequence of MDR1 (P-gp, ABCB1) (P08183 whole entry): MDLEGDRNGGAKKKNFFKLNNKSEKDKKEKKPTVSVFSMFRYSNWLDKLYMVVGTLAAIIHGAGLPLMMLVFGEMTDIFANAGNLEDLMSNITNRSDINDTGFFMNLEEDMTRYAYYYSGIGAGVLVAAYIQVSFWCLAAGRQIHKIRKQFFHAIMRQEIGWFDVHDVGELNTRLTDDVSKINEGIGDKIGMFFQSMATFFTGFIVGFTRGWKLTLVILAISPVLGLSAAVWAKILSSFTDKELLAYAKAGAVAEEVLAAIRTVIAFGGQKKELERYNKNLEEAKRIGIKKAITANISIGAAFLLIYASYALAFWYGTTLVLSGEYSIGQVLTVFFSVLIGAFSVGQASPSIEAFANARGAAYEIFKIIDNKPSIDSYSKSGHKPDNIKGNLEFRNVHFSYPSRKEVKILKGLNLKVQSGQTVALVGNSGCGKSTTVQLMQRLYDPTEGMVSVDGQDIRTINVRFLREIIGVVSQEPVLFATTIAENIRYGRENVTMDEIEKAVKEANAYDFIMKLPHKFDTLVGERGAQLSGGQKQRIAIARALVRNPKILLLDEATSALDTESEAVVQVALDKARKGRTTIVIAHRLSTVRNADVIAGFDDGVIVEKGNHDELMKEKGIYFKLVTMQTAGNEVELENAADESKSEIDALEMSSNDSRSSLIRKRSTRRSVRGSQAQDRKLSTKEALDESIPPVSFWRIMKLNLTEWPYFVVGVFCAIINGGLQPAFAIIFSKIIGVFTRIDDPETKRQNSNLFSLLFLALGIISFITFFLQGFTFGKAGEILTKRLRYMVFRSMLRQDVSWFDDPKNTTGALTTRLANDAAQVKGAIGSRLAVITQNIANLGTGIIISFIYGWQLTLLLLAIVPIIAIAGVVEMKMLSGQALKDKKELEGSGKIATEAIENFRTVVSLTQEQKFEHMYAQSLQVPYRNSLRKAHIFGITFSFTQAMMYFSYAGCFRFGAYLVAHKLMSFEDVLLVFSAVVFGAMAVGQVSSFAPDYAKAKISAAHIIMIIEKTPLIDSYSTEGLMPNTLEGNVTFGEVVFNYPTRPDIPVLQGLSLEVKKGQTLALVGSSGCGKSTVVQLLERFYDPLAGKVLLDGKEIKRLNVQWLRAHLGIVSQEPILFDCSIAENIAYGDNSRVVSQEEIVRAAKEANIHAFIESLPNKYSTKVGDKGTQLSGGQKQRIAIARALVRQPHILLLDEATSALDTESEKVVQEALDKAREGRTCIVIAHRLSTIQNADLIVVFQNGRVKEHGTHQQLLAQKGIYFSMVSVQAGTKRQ

[28] = Reversible inhibition of CYP in human liver microsomes by mass spectrophotometric analysis; type: ADME
[29] = biological target: T4, Cytochrome P450 1A2; assay: Time dependent inhibition of CYP1A2 in human liver microsomes using phenacetin as substrate by HPLC-MS analysis; type: ADME
[30] = organism: Homo sapiens; assay: Selectivity ratio of Ki for JAK2 (unknown origin) to Ki for LRRK2 (unknown origin)
[31] = Oral bioavailability in cynomolgus monkey at 1 to 20 mg/kg; type: ADME, organism-based, Macaca fascicularis; settings: in vivo
[32] = system: Liver microsome; assay: Drug metabolism in human liver microsomes in presence of methoxyamine; type: ADME
[33] = Time dependent inhibition of CYP in human liver microsomes by HPLC-MS analysis; type: ADME
[34] = biological target: TAK1/TAB1 (Homo sapiens) (UniProt Q15750+O43318); assay: Inhibition of TAK1/TAB1 (unknown origin) at 0.1 uM relative to control; type: protein-complex assay
[35] = system: Liver microsome; assay: Drug metabolism in human liver microsomes in presence of glutathione; type: ADME
[36] = Oral bioavailability in Sprague-Dawley rat at 1 mg/kg; type: ADME, organism-based; settings: in vivo

SMILES	CL free [1]	IC50 [2]	inhibition [2]	CLhep predicted at 1 µM [3]	bioavailability [4]	IC50 [5]	Ki [6]	clearance [7]	CLhep predicted at 1 µM [9]	Activity [12]	clearance [13]	Activity [14]	Activity [15]	half-life [17]	CL free [23]	Kp uu [24]	fraction unbound at 4 h, 5 µM [25]	inhibition (INH) [28]	Ratio Ki [30]	also measured
CNc1nc(Nc2cn(C(C)(C)C#N)nc2C)ncc1C(F)(F)F [DNL-201]	210 mL/min/kg	3 nM	Dose-dependent effect	25 mL/min/kg	35%	3 nM	0.7 nM	44 mL/min/kg	3 mL/min/kg	Active	19.7 mL/min/kg	Active	Active	2.2 h	100 mL/min/kg	0.6	0.197			inhibition [8]: 62%; Ki [10]: 150 nM; bioavailability [11]: 88%; IC50 [16]: 700 nM; Drug metabolism [18]: Not Active; solubility thermodynamic [19]: 100 µg/mL (≈ 295 µM); inhibition [20]: 52%; inhibition [21]: 68%; Drug metabolism [22]: Not Active; inhibition [26]: 51%
CNc1nc(Nc2cnn(C3COC3)c2C)ncc1C(F)(F)F	115 mL/min/kg			17 mL/min/kg		29 nM	2 nM	56 mL/min/kg	2 mL/min/kg							0.3		Not Active	> 150	efflux ratio at 5 µM [27]: 1.4; IC50 [29]: 2000 nM
CNc1nc(Nc2cnn(CC(C)(C)O)c2Cl)ncc1C(F)(F)F																			> 150	bioavailability [31]: 5%
CNc1nc(Nc2cnn([C@H]3CCN(C4COC4)C[C@@H]3F)c2Cl)ncc1C(F)(F)F (relative stereo)	261 mL/min/kg	20 nM	Dose-dependent effect	21 mL/min/kg	74%	18.7 nM	2 nM	26 mL/min/kg	1 mL/min/kg	Not Active	7.8 mL/min/kg	Not Active	Not Active	4 h	43 mL/min/kg	0.51	0.179	Not Active		Drug metabolism [32]: Not Active; inhibition (INH) [33]: Not Active; inhibition [34]: 54%; Drug metabolism [35]: Not Active; bioavailability [36]: 90%
